Data: PubChem BioAssay (NCI)
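In this assay, cells in 96-well plates receive the compound at five concentrations for 48 hours. Endpoints are linearly interpolated between the surrounding concentrations. GI50 marks 50% less growth. TGI is the concentration that stops growth completely.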

Columns and labels:
Experiment in all cases: growth of human tumour cells (NCI), 48 h
[1] = tested on: NCI-H522 lung
[2] = tested on: NCI-H460 lung
[3] = tested on: A498 renal
[4] = tested on: NCI-H226 lung
[5] = tested on: CAKI-1 renal
[6] = tested on: HCC-2998 colon
[7] = tested on: HS 578T breast
[8] = tested on: DU-145 prostate
[9] = tested on: 786-0 renal
[10] = tested on: SK-OV-3 ovarian
[11] = tested on: SK-MEL-5 melanoma
[12] = tested on: RPMI-8226 leukemia
[13] = tested on: T-47D breast
[14] = tested on: COLO 205 colon
[15] = tested on: HCT-15 colon
[16] = tested on: HT29 colon
[17] = tested on: SK-MEL-28 melanoma
[18] = tested on: OVCAR-8 ovarian
[19] = tested on: CCRF-CEM leukemia
[20] = tested on: SF-539 CNS
[21] = tested on: SNB-75 CNS
[22] = tested on: EKVX NSCLC
[23] = tested on: SN12C renal
[24] = tested on: RXF 393 renal
[25] = tested on: UACC-62 melanoma
[26] = tested on: IGROV1 ovarian
[27] = tested on: UACC-257 melanoma
[28] = tested on: LOX IMVI melanoma
[29] = tested on: HL-60(TB) leukemia
[30] = tested on: SK-MEL-2 melanoma
[31] = tested on: HOP-92 NSCLC
[32] = tested on: UO-31 renal
[33] = tested on: MOLT-4 leukemia
[34] = tested on: PC-3 prostate
[35] = tested on: SF-295 CNS
[36] = tested on: ACHN renal
[37] = tested on: TK-10 renal
[38] = tested on: MDA-MB-231 breast
[39] = tested on: HOP-62 NSCLC
[40] = tested on: HCT-116 colon
[41] = tested on: MALME-3M melanoma
[42] = tested on: OVCAR-5 ovarian
[43] = tested on: OVCAR-3 ovarian
[44] = tested on: NCI/ADR-RES ovarian
[45] = tested on: SNB-19 CNS
[46] = tested on: U251 CNS
[47] = tested on: A549 NSCLC

Question: What does the source list for `Cc1nc2ccccc2c(/C=C/c2ccc(C(F)(F)F)cc2)c1C(=O)/C=C/c1ccccc1`?
Answer: GI50 [1]: 1330 nM; TGI [1]: 3.07 µM; GI50 [2]: 1130 nM; TGI [2]: 2570 nM; GI50 [3]: 1690 nM; TGI [3]: 3.13 µM; GI50 [4]: 1600 nM; TGI [4]: 3.14 µM; GI50 [5]: 1230 nM; TGI [5]: 2510 nM; GI50 [6]: 1570 nM; TGI [6]: 3.29 µM; GI50 [7]: 1920 nM; TGI [7]: 5.75 µM; GI50 [8]: 1600 nM; TGI [8]: 3.1 µM; GI50 [9]: 1580 nM; TGI [9]: 3.07 µM; GI50 [10]: 1540 nM; TGI [10]: 2980 nM; GI50 [11]: 1690 nM; TGI [11]: 3.05 µM; GI50 [12]: 999 nM; TGI [12]: 4.64 µM; GI50 [13]: 1070 nM; TGI [13]: 3.13 µM; GI50 [14]: 1550 nM; TGI [14]: 3.82 µM; GI50 [15]: 1100 nM; TGI [15]: 3.16 µM; GI50 [16]: 1040 nM; TGI [16]: 6.05 µM; GI50 [17]: 1770 nM; TGI [17]: 3.22 µM; GI50 [18]: 1640 nM; TGI [18]: 4.91 µM; GI50 [19]: 675 nM; TGI [19]: > 100 µM; GI50 [20]: 1720 nM; TGI [20]: 3.13 µM; GI50 [21]: 1380 nM; TGI [21]: 2810 nM; GI50 [22]: 1610 nM; TGI [22]: 2990 nM; GI50 [23]: 1540 nM; TGI [23]: 3.01 µM; GI50 [24]: 1460 nM; TGI [24]: 2810 nM; GI50 [25]: 1490 nM; TGI [25]: 3000 nM; GI50 [26]: 1120 nM; TGI [26]: 3 µM; GI50 [27]: 1610 nM; TGI [27]: 3.17 µM; GI50 [28]: 1580 nM; TGI [28]: 2940 nM; GI50 [29]: 1940 nM; TGI [29]: 4.44 µM; GI50 [30]: 1760 nM; TGI [30]: 3.64 µM; GI50 [31]: 1320 nM; TGI [31]: 2980 nM; GI50 [32]: 1080 nM; TGI [32]: 2270 nM; GI50 [33]: 508 nM; TGI [33]: 5.79 µM; GI50 [34]: 1340 nM; TGI [34]: 3.17 µM; GI50 [35]: 1770 nM; TGI [35]: 3.22 µM; GI50 [36]: 1540 nM; TGI [36]: 2870 nM; GI50 [37]: 2050 nM; TGI [37]: 3.63 µM; GI50 [38]: 1740 nM; TGI [38]: 3.65 µM; GI50 [39]: 1640 nM; TGI [39]: 3.16 µM; GI50 [40]: 521 nM; TGI [40]: 2030 nM; GI50 [41]: 1600 nM; TGI [41]: 3.02 µM; GI50 [42]: 1860 nM; TGI [42]: 3.35 µM; GI50 [43]: 1200 nM; TGI [43]: 2520 nM; GI50 [44]: 1970 nM; TGI [44]: 4.76 µM; GI50 [45]: 1640 nM; TGI [45]: 3.01 µM; GI50 [46]: 1470 nM; TGI [46]: 2920 nM; GI50 [47]: 1790 nM; TGI [47]: 4.73 µM
